{"source": "patent US8785594B2", "about": "“Glycoproteins and glycosylated cells and a method for the preparation of the same” (Glycom A/S, priority 2007, dated 2014)", "assay_type_in_all_cases": "cell-based", "key": {"B16.BL6 melanoma cells [1]": {"test_system": "B16.BL6 melanoma cells", "assay": "Cell viability after 1 hour conjugation, trypan blue (Example 12)", "conditions": "for Viability of cells harvested: 1 hour", "method": "The alpha-Gal trisaccharide-carbamate probe (9) was dissolved in both PBS (without Mg^2+ and Ca^2+) (Gibco Invitrogen, Taastrup, Denmark) and HBSS (with D-glucose) (Gibco Invitrogen, Taastrup, Denmark) and passed through sterile filters (Sartorius Minisart®, 0.20 my) (Sartorius, Goettingen, Germany). Three different concentrations of the trisaccharide probe were prepared in both PBS and HBSS.\nEight small flasks (25 cm^2) (TPP, Trasadingen Switzerland) were prepared, each containing 10^6 B16.BL6 cells, and the trisaccharide probe was added. Total volume of the flasks was 4.6 mL. The cells were incubated with the conjugate for 1 hour at 37° C. and 5% CO2.\nAfter conjugation, the supernatant from each flask was transferred to separate 10 mL tubes (TPP, Trasadingen Switzerland). The cells were harvested with Cell Dissociation Solution (2 mL per flask) (Sigma-aldrich, Saint Louis, Mo.) and transferred to the 10 mL tubes. Cells were centrifuged for 5 minutes at 300 G at 20° C. and resuspended in 0.5 mL of PBS or HBSS. Cell concentration and viability was determined by microscopic evaluation of trypan blue stained cell samples."}, "B16.BL6 melanoma cells [2]": {"test_system": "B16.BL6 melanoma cells", "assay": "Flow cytometry with FITC-labelled GS1B4 (Example 13)", "method": "The alpha-Gal trisaccharide probe (9) was dissolved in HBSS (Gibco Invitrogen, Taastrup, Denmark) and passed through a sterile filter (0.2 μm Supor® Acrodisc® 13, Gelman Sciences, Ann Arbor, Mich.). Three different concentrations of the alpha-Gal trisaccharide-carbamate (9) were made. Five small flasks were prepared with 606 μL of cell suspension containing a total of 10^6 B16.BL6 cells in addition to 4 mL of one of the conjugate solutions. Each flask contained a total volume of 4.6 mL. The cells were incubated with the “Glycom conjugate” for either 3 or 1.5 hours at 37° C.\nAfter conjugation, the supernatant from each flask was transferred to separate 10 mL tubes (TPP, Trasadingen Switzerland). Cells were washed twice by adding PBS to the flasks and immediately removing it again. The cells were harvested with Cell Dissociation Solution (2 mL per flask) (Sigma-aldrich, Saint Louis, Mo.). After 5 minutes, cells were transferred to the 10 mL test tubes. The cells were centrifuged for 5 minutes at 300 G at 20° C. and resuspended in 0.5 mL of PBS. Cell concentration and viability was determined by microscopic evaluation of trypan blue stained cell samples.\nOne hundred μL of cell suspension containing 1×10^5 cells were incubated for 15 minutes at 4° C. with 10 μg per mL (1:100 dilution) of FITC-labelled GS1B4 in PBS. Rabbit red blood cells (A) were used for comparison,\nAs very few cells were available for flow cytometry analysis the exact cell concentration was not determined. Instead, the amount of cells used was estimated to 0.4×10^5. The cells were incubated for 15 minutes at 4° C. with 4 μg per mL of FITC-labelled GS1B4 in PBS. Rabbit red blood cells (B) were used for comparison.\nMean and median cell fluorescence intensity was determined by flow cytometry."}, "B16.BL6 melanoma cells [3]": {"test_system": "B16.BL6 melanoma cells", "assay": "Flow cytometry with FITC-labelled GS1B4 (Example 14)", "method": "Radioactive labelled and regular trisaccharide probe was dissolved in HBSS containing D-glucose (without Mg^2+ and Ca^2+) (Gibco Invitrogen, Taastrup, Denmark) and passed through sterile filters (0.2 μm Supor® Acrodisc® 13, Gelman Sciences, Ann Arbor, Mich.). Four different concentrations of each “Glycom conjugate” (25 mg, 5 mg, 1 mg and 0.1 mg) were made. Twelve flasks (150 cm^2) (TPP, Trasadingen Switzerland) were prepared each containing a total of 10×10^6 B16.BL6 cells. The trisaccharide probe was added and the total volume was adjusted to 20 mL with HBSS containing D-glucose (without Mg^2+ and Ca^2+). The cells were incubated with the “Glycom conjugate” for 1.5 hours at 37° C. After conjugation, the supernatant from each flask was transferred to separate 50 mL tubes (TPP, Trasadingen Switzerland). The cells were harvested with Cell Dissociation Solution C5914 (5 mL per flask) (Sigma-Aldrich, Saint Louis, Mo. and transferred to the 50 mL tubes containing the supernatant. The cells were centrifuged for 3 minutes at 300 G at 20° C. and resuspended in 5 mL of PBS (without Mg^2+ and Ca^2+). This was repeated 3 times before cell concentration and viability was determined by microscopical evaluation of trypan blue stained cell samples.\nCells conjugated with regular trisaccharide probe were analysed by flow cytometry. Four hundred μl of each cell suspension containing 2×10^5 cells were incubated for 15 minutes at 4° C. with 10 μg per mL of FITC-labelled GS1B4. Mean fluorescence intensity of cells stained with GS1B4 was measured by flow cytometry."}, "[4]": {"conditions": "reaction 1, 19.2 mg, 3 hours, 10 μg per mL FITC-GS1B4"}, "[5]": {"conditions": "reaction 2, 19.2 mg, 1.5 hours, group of 35.3% of the cells"}, "[6]": {"conditions": "reaction 2, 19.2 mg, 1.5 hours, group of 62.7% of the cells"}, "[7]": {"conditions": "reaction 4, 58 mg, 1.5 hours, group of 15.65% of the cells"}, "[8]": {"conditions": "reaction 4, 58 mg, 1.5 hours, group of 84.26% of the cells"}}, "note": "Marks after values point to notes of the source that are not given here.", "data": [{"smiles": "O=C1N[C@@H]2O[C@H](CO)[C@@H](O[C@@H]3O[C@H](CO)[C@H](O)[C@H](O[C@H]4O[C@H](CO)[C@H](O)[C@H](O)[C@H]4O)[C@H]3O)[C@H](O)[C@H]2O1", "note": "[Compound 9, alpha-Gal trisaccharide-carbamate]", "values": [{"measurement": "Viability of cells after incubation, before harvest", "setting": "B16.BL6 melanoma cells [1]; after the 1-hour incubation with the trisaccharide probe", "result": "most of the cells were viable"}, {"measurement": "Viability of cells harvested", "setting": "B16.BL6 melanoma cells [1]; reaction HA, 16 mg, HBSS (with D-glucose)", "result": 33.3, "unit": "%"}, {"measurement": "Viability of cells harvested", "setting": "B16.BL6 melanoma cells [1]; reaction HB, 2 mg, HBSS (with D-glucose)", "result": 41.7, "unit": "%"}, {"measurement": "Viability of cells harvested", "setting": "B16.BL6 melanoma cells [1]; reaction HC, 1 mg, HBSS (with D-glucose)", "result": 41.6, "unit": "%"}, {"measurement": "Viability of cells harvested", "setting": "B16.BL6 melanoma cells [1]; reaction PA, 16 mg, PBS", "result": 14.3, "unit": "%"}, {"measurement": "Viability of cells harvested", "setting": "B16.BL6 melanoma cells [1]; reaction PB, 2 mg, PBS", "result": 32.0, "unit": "%"}, {"measurement": "Viability of cells harvested", "setting": "B16.BL6 melanoma cells [1]; reaction PC, 1 mg, PBS", "result": 37.5, "unit": "%"}, {"measurement": "Galα1,3Gal epitopes detected by binding of FITC-labelled GS1B4, flow cytometry", "setting": "B16.BL6 melanoma cells [2]; all conjugation reactions (1.9-58 mg, 1.5 or 3 hours)", "result": "found on B16.BL6 cells from all conjugation reactions"}, {"measurement": "Mean fluorescence intensity", "setting": "B16.BL6 melanoma cells [2]; [4]", "result": 197.8}, {"measurement": "Median fluorescence intensity", "setting": "B16.BL6 melanoma cells [2]; [4]", "result": 155.4}, {"measurement": "Share of the cells in the group of higher fluorescence intensity", "setting": "B16.BL6 melanoma cells [2]; reaction 2, 19.2 mg, 1.5 hours", "result": "2 (35.3% of the cells)**"}, {"measurement": "Share of the cells in the group of lower fluorescence intensity", "setting": "B16.BL6 melanoma cells [2]; reaction 2, 19.2 mg, 1.5 hours", "result": "2 (62.7% of the cells)**"}, {"measurement": "Mean fluorescence intensity", "setting": "B16.BL6 melanoma cells [2]; [5]", "result": 2940.2}, {"measurement": "Median fluorescence intensity", "setting": "B16.BL6 melanoma cells [2]; [5]", "result": 2196.8}, {"measurement": "Mean fluorescence intensity", "setting": "B16.BL6 melanoma cells [2]; [6]", "result": 161.63}, {"measurement": "Median fluorescence intensity", "setting": "B16.BL6 melanoma cells [2]; [6]", "result": 125.2}, {"measurement": "Mean fluorescence intensity", "setting": "B16.BL6 melanoma cells [2]; reaction 3, 1.9 mg, 1.5 hours", "result": 167.8}, {"measurement": "Median fluorescence intensity", "setting": "B16.BL6 melanoma cells [2]; reaction 3, 1.9 mg, 1.5 hours", "result": 66.4}, {"measurement": "Share of the cells in the group of higher fluorescence intensity", "setting": "B16.BL6 melanoma cells [2]; reaction 4, 58 mg, 1.5 hours", "result": "4 (15.65% of the cells)"}, {"measurement": "Share of the cells in the group of lower fluorescence intensity", "setting": "B16.BL6 melanoma cells [2]; reaction 4, 58 mg, 1.5 hours", "result": "4 (84.26% of the cells)"}, {"measurement": "Mean fluorescence intensity", "setting": "B16.BL6 melanoma cells [2]; [7]", "result": 770.0}, {"measurement": "Median fluorescence intensity", "setting": "B16.BL6 melanoma cells [2]; [7]", "result": 504.8}, {"measurement": "Mean fluorescence intensity", "setting": "B16.BL6 melanoma cells [2]; [8]", "result": 49.2}, {"measurement": "Median fluorescence intensity", "setting": "B16.BL6 melanoma cells [2]; [8]", "result": 44.1}, {"measurement": "Cells marked with GS1B4", "setting": "B16.BL6 melanoma cells [3]; 0.1 mg conjugate added", "result": 17.64, "unit": "%"}, {"measurement": "Mean fluorescence intensity of cells marked with GS1B4", "setting": "B16.BL6 melanoma cells [3]; 0.1 mg conjugate added", "result": 1025.86}, {"measurement": "Cells marked with GS1B4", "setting": "B16.BL6 melanoma cells [3]; 1 mg conjugate added", "result": 2.36, "unit": "%"}, {"measurement": "Mean fluorescence intensity of cells marked with GS1B4", "setting": "B16.BL6 melanoma cells [3]; 1 mg conjugate added", "result": 342.05}, {"measurement": "Cells marked with GS1B4", "setting": "B16.BL6 melanoma cells [3]; 5 mg conjugate added", "result": 14.56, "unit": "%"}, {"measurement": "Mean fluorescence intensity of cells marked with GS1B4", "setting": "B16.BL6 melanoma cells [3]; 5 mg conjugate added", "result": 1719.58}, {"measurement": "Cells marked with GS1B4", "setting": "B16.BL6 melanoma cells [3]; 25 mg conjugate added", "result": 31.86, "unit": "%"}, {"measurement": "Mean fluorescence intensity of cells marked with GS1B4", "setting": "B16.BL6 melanoma cells [3]; 25 mg conjugate added", "result": 2460.67}, {"measurement": "Binding of FITC-labelled GS1B4 to conjugated cells", "setting": "B16.BL6 melanoma cells [3]; 0.1-25 mg regular trisaccharide probe", "result": "only a fraction of the conjugated cells bound detectable amounts of FITC-labelled GS1B4"}]}]}
